Assay results as given in article PMC3469756 (Journal of medicinal chemistry, 2012).
Like-named read-outs stand apart in the source and are kept apart here.

B1: PDE9A2 catalytic domain (residues 181-506) (domain or fragment, UniProt O76083-2 181-506, looked up)
chain: PTYPKYLLSPETIEALRKPTFDVWLWEPNEMLSCLEHMYHDLGLVRDFSINPVTLRRWLFCVHDNYRNNPFHNFRHCFCVAQMMYSMVWLCSLQEKFSQTDILILMTAAICHDLDHPGYNNTYQINARTELAVRYNDISPLENHHCAVAFQILAEPECNIFSNIPPDGFKQIRQGMITLILATDMARHAEIMDSFKEKMENFDYSNEEHMTLLKMILIKCCDISNEVRPMEVAEPWVDCLLEEYFMQSDREKSEGLPVAPFMDRDKVTKATAQIGFIKFVLIPMFETVTKLFPMVEEIMLQPLWESRDRYEELKRIDDAMKELQKK

Experiments:
[1] = tested on: PDE1C; details: PDE9 versus PDE1C, cited from earlier work
[2] = target: the molecule itself; experiment: crystal structure

Molecule	selectivity against PDE1C [1]	selectivity against PDE1C ([1]; listed as PF-04447943)	binding result [2]
C[C@@H]1CN(Cc2ncccn2)C[C@H]1c1nc2c(cnn2C2CCOCC2)c(=O)[nH]1 [compound 9, 6-[(3S,4S)-4-methyl-1-(pyrimidin-2-ylmethyl)pyrrolidin-3-yl]-1-(tetrahydro-2H-pyran4-yl)-1,5-dihydro-4H-pyrazolo[3,4-d]pyrimidin-4-one]	170 fold	about 170 fold	–
B1	–	–	binds
